Laboratory results as given in PMC9673926, “Nucleotide binding as an allosteric regulatory mechanism for Akkermansia muciniphila β-N-acetylhexosaminidase Am2136” (Gut Microbes, 2022).
Changes are numbered by the printed parent chain.

How the values were obtained:
Am2136 WT = target: T1, Am2136 WT (Akkermansia muciniphila, UniProt B2UPR7); assay: Enzyme activity assay (pNP-β-GlcNAc hydrolysis) regulated by nucleotides; assay type: biochemical
T1 construct: The coding region (residue Q20-L756) of Am2136 without signal peptide was based on UniProt; 6XHis (N); made in house; host or cells: E. coli BL21 (DE3)
T1 sequence (B2UPR7 20-756): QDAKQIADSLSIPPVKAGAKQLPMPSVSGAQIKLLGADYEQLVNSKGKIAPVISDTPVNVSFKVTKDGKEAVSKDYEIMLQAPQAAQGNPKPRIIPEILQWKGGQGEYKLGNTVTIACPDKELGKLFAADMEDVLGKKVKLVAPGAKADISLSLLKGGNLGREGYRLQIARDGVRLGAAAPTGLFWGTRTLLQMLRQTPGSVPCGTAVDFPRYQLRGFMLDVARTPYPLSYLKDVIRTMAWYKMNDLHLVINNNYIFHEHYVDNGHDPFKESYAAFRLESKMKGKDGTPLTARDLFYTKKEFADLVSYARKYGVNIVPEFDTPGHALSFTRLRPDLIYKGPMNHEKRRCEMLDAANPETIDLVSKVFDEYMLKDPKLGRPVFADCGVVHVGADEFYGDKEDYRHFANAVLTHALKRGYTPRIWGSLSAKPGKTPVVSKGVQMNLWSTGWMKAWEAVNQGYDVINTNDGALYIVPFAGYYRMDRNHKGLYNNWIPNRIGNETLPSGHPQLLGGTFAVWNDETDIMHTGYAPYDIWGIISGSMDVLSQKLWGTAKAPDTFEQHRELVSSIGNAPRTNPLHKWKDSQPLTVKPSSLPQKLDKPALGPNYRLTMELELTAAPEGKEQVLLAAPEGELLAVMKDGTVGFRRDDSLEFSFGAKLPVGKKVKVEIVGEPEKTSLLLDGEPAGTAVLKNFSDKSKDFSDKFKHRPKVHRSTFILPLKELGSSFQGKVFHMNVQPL

Am2136 Y550A = target: T2, Am2136 Y550A (Akkermansia muciniphila, UniProt B2UPR7, Y550A); assay: GDP regulated enzyme activity assay, mutant; conditions: 1 mM GDP, substrate pNP-β-GlcNAc
T2 sequence (B2UPR7 20-756 Y550A): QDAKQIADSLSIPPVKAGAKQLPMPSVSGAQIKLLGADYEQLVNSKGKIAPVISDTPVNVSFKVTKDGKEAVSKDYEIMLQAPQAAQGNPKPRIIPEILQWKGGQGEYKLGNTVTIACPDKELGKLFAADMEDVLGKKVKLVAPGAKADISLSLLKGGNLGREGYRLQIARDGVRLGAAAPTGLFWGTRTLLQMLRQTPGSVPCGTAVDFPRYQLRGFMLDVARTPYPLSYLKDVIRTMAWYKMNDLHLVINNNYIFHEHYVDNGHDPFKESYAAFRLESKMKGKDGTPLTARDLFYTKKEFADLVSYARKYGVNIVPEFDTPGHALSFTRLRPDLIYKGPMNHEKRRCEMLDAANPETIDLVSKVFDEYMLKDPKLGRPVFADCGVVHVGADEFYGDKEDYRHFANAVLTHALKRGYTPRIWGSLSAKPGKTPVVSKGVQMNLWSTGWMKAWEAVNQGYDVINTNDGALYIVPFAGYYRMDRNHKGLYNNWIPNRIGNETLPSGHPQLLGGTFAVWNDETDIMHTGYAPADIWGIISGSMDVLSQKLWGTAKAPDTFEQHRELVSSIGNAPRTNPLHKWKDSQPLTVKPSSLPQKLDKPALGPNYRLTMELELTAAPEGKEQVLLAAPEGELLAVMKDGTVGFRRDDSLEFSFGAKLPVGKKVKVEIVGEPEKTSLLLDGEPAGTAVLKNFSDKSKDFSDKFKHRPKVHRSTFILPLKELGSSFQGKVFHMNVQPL

Am2136 R256A = target: T3, Am2136 R256A (Akkermansia muciniphila, UniProt B2UPR7, R256A); assay: GDP regulated enzyme activity assay, mutant; conditions: 1 mM GDP, substrate pNP-β-GlcNAc
T3 sequence (B2UPR7 20-756 R256A): T2 sequence (B2UPR7 20-756 Y550A) with R237A, A531Y

Am2136 R592A = target: T4, Am2136 R592A (Akkermansia muciniphila, UniProt B2UPR7, R592A); assay: GDP regulated enzyme activity assay, mutant; conditions: 1 mM GDP, substrate pNP-β-GlcNAc
T4 sequence (B2UPR7 20-756 R592A): T2 sequence (B2UPR7 20-756 Y550A) with A531Y, R573A

Nc1nc2c(ncn2[C@@H]2O[C@H](COP(=O)(O)OP(=O)(O)O)[C@@H](O)[C@H]2O)c(=O)[nH]1 [GDP]
maximal activation of Am2136 (Am2136 WT; 1 mM GDP): up to twofold
effect on Am2136 hydrolysis activity (Am2136 WT; GDP 0–2.65 mM, substrate pNP-β-GlcNAc): concentration-dependent enhancement
Vmax (Am2136 WT; WT, 1 mM nucleotide, substrate pNP-β-GlcNAc, 37°C): 442 ± 7 µmol/min
Vmax (Am2136 Y550A): 463 ± 7 µmol/min
Vmax (Am2136 R256A): 465 ± 15 µmol/min
Vmax (Am2136 R592A): 442 ± 5 µmol/min
